Results taken from ChEMBL document CHEMBL3621199, “Structure-based approaches towards identification of fragments for the low-druggability ATAD2 bromodomain” (Medchemcomm, 2014).

These compounds were tested against T1, ATPase family AAA domain-containing protein 2 (Homo sapiens, UniProt Q6PL18) (assay: Binding affinity to recombinant human ATAD2 (982 to 1108 amino acids) bromodomain […] at methyl groups of leucine, valine, isoleucine, methionine expressed in Escherichia coli BL21 (DE3) by NMR titration).
T1 sequence (Q6PL18 whole entry): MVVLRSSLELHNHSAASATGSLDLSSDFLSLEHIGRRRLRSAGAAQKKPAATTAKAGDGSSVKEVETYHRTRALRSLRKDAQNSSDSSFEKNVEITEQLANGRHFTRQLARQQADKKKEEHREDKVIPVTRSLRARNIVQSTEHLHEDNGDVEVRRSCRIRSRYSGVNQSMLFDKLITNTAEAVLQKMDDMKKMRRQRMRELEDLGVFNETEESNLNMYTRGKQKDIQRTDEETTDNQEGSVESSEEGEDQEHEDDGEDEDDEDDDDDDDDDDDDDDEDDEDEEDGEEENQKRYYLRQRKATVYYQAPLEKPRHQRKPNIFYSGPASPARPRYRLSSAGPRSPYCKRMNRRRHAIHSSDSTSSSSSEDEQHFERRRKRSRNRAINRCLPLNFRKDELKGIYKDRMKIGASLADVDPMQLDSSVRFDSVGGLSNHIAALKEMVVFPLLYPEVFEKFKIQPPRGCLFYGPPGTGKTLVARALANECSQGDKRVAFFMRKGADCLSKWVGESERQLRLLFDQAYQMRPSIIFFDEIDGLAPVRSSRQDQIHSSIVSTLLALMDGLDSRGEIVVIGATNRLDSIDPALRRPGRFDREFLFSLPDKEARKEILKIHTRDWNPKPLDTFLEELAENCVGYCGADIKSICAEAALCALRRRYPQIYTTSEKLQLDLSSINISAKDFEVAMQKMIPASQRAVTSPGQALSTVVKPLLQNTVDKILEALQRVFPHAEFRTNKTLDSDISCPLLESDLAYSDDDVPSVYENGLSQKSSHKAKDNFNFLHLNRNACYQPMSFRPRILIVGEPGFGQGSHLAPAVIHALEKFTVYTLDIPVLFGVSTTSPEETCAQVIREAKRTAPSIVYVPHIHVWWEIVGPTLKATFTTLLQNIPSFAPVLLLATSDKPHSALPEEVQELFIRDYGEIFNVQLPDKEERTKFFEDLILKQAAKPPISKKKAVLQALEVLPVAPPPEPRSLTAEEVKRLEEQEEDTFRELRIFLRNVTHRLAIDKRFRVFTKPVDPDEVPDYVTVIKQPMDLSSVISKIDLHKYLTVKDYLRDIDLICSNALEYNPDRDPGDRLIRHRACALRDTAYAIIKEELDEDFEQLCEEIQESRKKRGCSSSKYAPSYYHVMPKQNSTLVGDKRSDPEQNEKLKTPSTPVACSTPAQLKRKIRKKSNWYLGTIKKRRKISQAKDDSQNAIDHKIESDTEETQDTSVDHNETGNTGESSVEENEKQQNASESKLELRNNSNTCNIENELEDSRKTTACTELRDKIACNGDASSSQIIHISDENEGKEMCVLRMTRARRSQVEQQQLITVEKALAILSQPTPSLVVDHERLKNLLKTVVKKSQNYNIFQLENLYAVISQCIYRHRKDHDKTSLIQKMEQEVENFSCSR
Compound `Cc1cn([C@H]2CC[C@@H](CO)O2)c(=O)[nH]c1=O` has a Kd of 18 mM.
For `Cc1c[nH]c(=O)[nH]c1=O` [THYMINE], the Kd was 10 mM.
For `Cc1cn([C@H]2C[C@H](O)[C@@H](CO)O2)c(=O)[nH]c1=O` [DOXRIBTIMINE], the Kd was 10 mM.
`Cc1cn([C@@H]2O[C@H](CN)[C@@H](O)[C@H]2O)c(=O)[nH]c1=O` showed a Kd of 17 mM.
For `Cc1cn([C@@H]2O[C@H](CO)[C@@H](O)[C@H]2O)c(=O)[nH]c1=O`, the Kd was 21 mM.
